{"source": "patent US12685738B2", "about": "“Inotodiol as agonist of liver x receptors, and use thereof” (CARBOEXPERT INC., priority 2020, dated 2026)", "key": {"APOE": {"tested_on": "APOE", "assay": "Real-time PCR of APOE gene expression in brain tissue", "type": "in vivo, Balb/c mice", "details": "Ino (10 mpk) vs control (Naïve); groups prepared as in Example 3; FIG. 6B", "description": "(§1) When inotodiol was administered to mice, the expression of ABCA1 and APOE in brain tissue, which are genes related to neurodegenerative brain diseases, was analyzed.\n(§2) Specifically, as in Example 3, controls and inotodiol-administered mouse groups were prepared, and then, to extract total RNA, first, 50 mg of brain tissue samples were quantified, and then cells were crushed using a mortar. 1 mL of Trizol was dispensed into each crushed sample and mixed by vortexing. Then, 0.2 mL of chloroform was dispensed and a reaction was allowed to occur therein at room temperature for 3 minutes. The reaction product was centrifuged at 12,000 rpm and 4° C. for 15 minutes, and then only the transparent supernatant was transferred to a new tube. Thereafter, 0.5 mL of isopropyl alcohol was dispensed, and then a reaction was allowed to occur therein at room temperature for 10 minutes. The resultant was centrifuged 12,000 rpm and 4° C. for 10 minutes, and then the supernatant was completely removed, and impurities were removed using 1 mL of 75% ethanol. […] Each sample was dissolved using DEPC water, and then total RNA was quantified to 1000 ng/μL using Nanodrop, and cDNA synthesis was performed using primeScript RT Master Mix (Takara Korea). […]"}, "ABCA1": {"tested_on": "ABCA1", "assay": "Real-time PCR of ABCA1 gene expression in brain tissue", "type": "in vivo, Balb/c mice", "details": "Ino (10 mpk) vs control (Naïve); groups prepared as in Example 3; FIG. 6A", "description": "as §1, §2"}, "rheumatoid arthritis": {"tested_on": "rheumatoid arthritis", "assay": "Bovine type II collagen-induced arthritis, macroscopic arthritic score", "type": "in vivo, male DBA/1J mice", "details": "4 mg/kg or 10 mg/kg orally once a day for 4 weeks; vs arthritic animals not administered; FIG. 7"}, "[1]": {"tested_on": "LXR-related markers (Abca1, Srebf1_1C, AQP1, ApoE1)", "assay": "In vivo qPCR analysis of effect of inotodiol on LXR-related markers", "design": "species or system mice (BALB/cAnNTacSam)", "description": "The effect of inotodiol on Abca1, Srebf1_1C, AQP1, and ApoE1, which are LXR-related markers, was analyzed.\nFirst, an inotodiol emulsion for administration at a dose of 4 mg/kg was prepared. Specifically, an emulsion was prepared by mixing inotodiol with 10% of olive oil (Monini, Classico extra virgin olive oil), 0.5% of tween 80, and sterile water. Subsequently, each 0.15 mL of the prepared emulsion was administered to BALB/cAnNTacSam (Sam Taco Bio Korea Co., Ltd.) for 5 days. After 5 days of administration, mice were euthanized, and then spleen, lung, liver and peritoneal cell samples were isolated.\nNext, to perform qPCR on the isolated samples, total RNA was extracted using a Bead™ Total RNA Prep Kit (BioFACT™) sample. Thereafter, primers for Abca1, Srebf1_1C, AQP1, and ApoE1 were used, the reaction reagent for qPCR was 2× Real-Time PCR Master Mix (BioFACT™), and the equipment used for qPCR was AriaMx Real-time PCR. The qPCR conditions were as follows: at 95° C. for 15 minutes, and 50 cycles at 95° C. for 20 seconds, 55° C. for 30 seconds, and 72° C. for 0.5-1 min/kb, and for the melting curve, 1 cycle was performed at 95° C. for 30 seconds, 65° C. for 30 seconds, and 95° C. for 30 seconds, and relative mRNA expression was measured."}, "[2]": {"assay": "Inotodiol concentrations in blood and brain tissue (LC/MS)", "type": "in vivo, Balb/c mice", "details": "4.5 mg/kg orally for 10 days, sampled day 11; for concentration at 11 day: 4.5 mg/kg", "description": "When inotodiol was administered to mice, the concentrations of inotodiol detected in blood and brain tissue of the mice were analyzed.\nSpecifically, 7-week-old Balb/c mice were supplied and acclimatized for 1 week, and then 4 mice per group were assigned to conduct experiments. Mice were grouped into: four controls not administered with inotodiol; and four groups administered with inotodiol. In the groups administered with inotodiol, 4.5 mg/kg of inotodiol was orally administered for 10 days. On day 11, the controls and inotodiol-administered mice were sacrificed, and blood and brain tissue samples were prepared.\nFirst, to analyze the concentration of inotodiol in blood, 20 μL of serum was transferred to a 1.5 mL Eppendorf tube, and then inotodiol was extracted twice in ethanol. In each extraction step, 200 μL of ethanol was mixed with serum and the mixture was sonicated for 10 minutes, followed by centrifugation at 14000×g for 15 minutes.\nTo analyze the concentration of inotodiol in brain tissue, the whole brain was weighed and mixed with 10-fold (v/w) 100% ethanol, and then the mixture was sonicated and centrifuged.\nAfter centrifugation, each residue was reconstituted with 0.5 mL of 60% methanol for solid phase extraction by using a C18 cartridge (Sep-Pak C18 3 cc Vac Cartridge, 200 mg adsorbent, Waters). Samples were loaded into cartridges and activated using methanol (6 mL), followed by conditioning with 60% methanol (6 mL). The cartridges were then washed with 6 mL of 60% methanol. Then, inotodiol was collected by eluting the cartridges with 100% methanol (3 mL) in glass tubes. After evaporation of each sample, the residue was dissolved in methanol and subjected to LC/MS analysis."}, "[3]": {"assay": "Two-week mouse toxicity test: health signs and total fat content of liver", "details": "for changes in total fat content of the liver: male and female mice, 2 weeks", "description": "If inotodiol is a LXR-α agonist, inotodiol overexpresses Srebf1 in the liver, thereby inducing fatty liver. Selectivity for LXRs and safety of inotodiol were evaluated through a two-week mouse toxicity test.\nSpecifically, the inotodiol emulsion was orally administered to male and female ICR mice in an amount of 0.0 mg/kg (group 1), 5.0 mg/kg (group 2), and 20 mg/kg (group 3) once a day for 2 weeks. […] As a control, 100% olive oil was administered."}, "TNF-α": {"tested_on": "TNF-α", "assay": "TNF-α ELISA in arthritic animals", "type": "in vivo, mouse", "details": "arthritic animals administered with inotodiol; FIG. 8", "procedure": "Next, the expression of TNF-α, which is a factor that activates inflammation, was confirmed. […] Then, the coating buffer was removed, followed by washing three times with 200 μL of washing buffer (0.05% Tween20/PBS). To prevent non-specific binding, a reaction with 200 μL of a blocking solution (1% BSA/PBS) was allowed to occur at room temperature for 1 hour. Washing was performed three times using a washing buffer. A standard material (Biolgend) and each sample were diluted using a blocking solution, and then 100 μL of each thereof was dispensed, and a reaction was allowed to occur therein at room temperature for 2-4 hours. Washing was performed three times using a washing buffer. A secondary antibody (biotin-labeled detection antibody, biolegend) was diluted to 0.25-2 μg/mL using a blocking solution, and then 100 μl thereof was dispensed and a reaction was allowed to occur therein at room temperature for 1 hour. Washing was performed three times using a washing buffer. Avidin-Horseradish peroxidase (Biolegend) was diluted 1/1000 times using a blocking solution, then 100 μL thereof was dispensed and a reaction was allowed to occur therein at room temperature for 30 minutes. Washing was performed 5 times using a washing buffer. […] An ELISA plate was examined at 450 nm using an EPOCH microplate reader (Biotek)."}, "[4]": {"details": "inotodiol emulsion 4 mg/kg for 5 days, various samples (FIGS. 1 to 5), vs untreated control"}, "[5]": {"details": "liver sample, 4 mg/kg for 5 days"}}, "note": "Where “and” joins values, the source holds several entries; their conditions need not be identical. Equal values may be shown once. Read-outs that look alike come from different tables or passages of the source."}
{"smiles": "CC(C)=CC[C@@H](O)[C@@H](C)[C@H]1CC[C@@]2(C)C3=C(CC[C@]12C)[C@@]1(C)CC[C@H](O)C(C)(C)[C@@H]1CC3", "note": "[inotodiol, (3S,5R,10S,13R,14R,17R)-17-[(2S,3R)-3-hydroxy-6-methylhept-5-en-2-yl]-4,4,10,13,14-pentamethyl-2,3,5,6,7,11,12,15,16,17-decahydro-1H-cyclopenta[a]phenanthren-3-ol]", "values": [{"measurement": "APOE gene expression in brain tissue", "setting": "APOE", "result": "highly expressed"}, {"measurement": "ABCA1 gene expression in brain tissue", "setting": "ABCA1", "result": "highly expressed"}, {"measurement": "macroscopic arthritic score (maximum score=16)", "setting": "rheumatoid arthritis", "result": "lower"}, {"measurement": "expression of AQP1 (relative mRNA expression)", "setting": "[1]; [4]", "result": "increases"}, {"measurement": "expression of Abca1 (relative mRNA expression)", "setting": "[1]; [4]", "result": "increases"}, {"measurement": "expression of ApoE1 (relative mRNA expression)", "setting": "[1]; [4]", "result": "increases"}, {"measurement": "expression of Srebf1 (relative mRNA expression)", "setting": "[1]; [4]", "result": "increases"}, {"measurement": "expression of AQP1, regulated by LXR-β", "setting": "[1]; [5]", "result": "significant increase"}, {"measurement": "expression of Srebf1, specifically regulated by LXR-α", "setting": "[1]; [5]", "result": "no significant increase"}, {"measurement": "LXR-α / LXR-β selectivity inferred from marker expression", "setting": "[1]; liver sample, inferred from Srebf1 and AQP1 expression", "result": "does not bind well to LXR-α and acts as an agonist by more specifically binding to LXR-β"}, {"measurement": "Inotodiol concentration (ng/g) Brain, individual mice", "setting": "[2]", "result": "177.1 ng/g and 133.3 ng/g and 135.0 ng/g"}, {"measurement": "Inotodiol concentration (ng/g) Brain, Average", "setting": "[2]; 4 mice", "result": "151.7 ± 21.3", "unit": "ng/g"}, {"measurement": "Inotodiol concentration (ng/g) Blood, Average", "setting": "[2]; 4 mice, serum", "result": "12.1 ± 1.3", "unit": "ng/g"}, {"measurement": "Inotodiol concentration (ng/g) Blood, individual mice", "setting": "[2]; serum", "result": "10.5 ng/g and 14.2 ng/g and 11.8 ng/g"}, {"measurement": "Kp at 11 day", "setting": "[2]; Balb/c, mouse, brain / blood (serum), oral, read-out: inotodiol detected in the brain relative to blood", "result": "~12"}, {"measurement": "concentration at 11 day", "setting": "[2]; Balb/c, mouse, brain, oral, 4 mice, read-out: Inotodiol concentration (ng/g) Brain, Average", "result": "152 ± 21.3", "unit": "ng/g"}, {"measurement": "concentration at 11 day", "setting": "[2]; Balb/c, mouse, brain, oral, read-out: Inotodiol concentration (ng/g) Brain, individual mice", "result": 161, "unit": "ng/g"}, {"measurement": "concentration at 11 day", "setting": "[2]; Balb/c, mouse, serum, oral, 4 mice, serum, read-out: Inotodiol concentration (ng/g) Blood, Average", "result": "12.1 ± 1.3", "unit": "ng/g"}, {"measurement": "concentration at 11 day", "setting": "[2]; Balb/c, mouse, serum, oral, serum, read-out: Inotodiol concentration (ng/g) Blood, individual mice", "result": 12.2, "unit": "ng/g"}, {"measurement": "Total fat (%) in mouse liver, Average", "setting": "[3]; Female, Group 2 (5.0 mg/kg oral once a day for 2 weeks)", "result": 3.24, "unit": "%"}, {"measurement": "Total fat (%) in mouse liver, individual animal analyses", "setting": "[3]; Female, Group 2 (5.0 mg/kg oral once a day for 2 weeks), 5 mg/kg", "result": "2.96% and 3.08% and 2.80% and 2.72% and 3.45% and 3.57% and 3.03% and 3.10% and 4.42% and 3.82% and 2.85% and 3.09%"}, {"measurement": "Total fat (%) in mouse liver, Average", "setting": "[3]; Female, Group 3 (20 mg/kg oral once a day for 2 weeks)", "result": 3.56, "unit": "%"}, {"measurement": "Total fat (%) in mouse liver, individual animal analyses", "setting": "[3]; Female, Group 3 (20 mg/kg oral once a day for 2 weeks), 20 mg/kg", "result": "4.01% and 4.03% and 3.49% (2×) and 2.69% and 2.94% and 3.09% and 3.19% and 3.16% and 3.23% and 4.77% and 4.62%"}, {"measurement": "Total fat (%) in mouse liver, Average", "setting": "[3]; Male, Group 2 (5.0 mg/kg oral once a day for 2 weeks)", "result": 3.23, "unit": "%"}, {"measurement": "Total fat (%) in mouse liver, individual animal analyses", "setting": "[3]; Male, Group 2 (5.0 mg/kg oral once a day for 2 weeks), 5 mg/kg", "result": "3.39% and 3.25% and 3.48% and 3.47% and 2.83% and 2.72% and 2.86% and 3.78% and 3.19% and 3.17% and 3.18% and 3.43%"}, {"measurement": "Total fat (%) in mouse liver, Average", "setting": "[3]; Male, Group 3 (20 mg/kg oral once a day for 2 weeks)", "result": 3.27, "unit": "%"}, {"measurement": "Total fat (%) in mouse liver, individual animal analyses", "setting": "[3]; Male, Group 3 (20 mg/kg oral once a day for 2 weeks), 20 mg/kg", "result": "3.38% and 3.52% and 3.44% and 3.47% and 3.07% and 3.10% and 3.23% and 3.30% and 3.36% and 3.41% and 2.99% and 2.93%"}, {"measurement": "changes in total fat content of the liver", "setting": "[3]; dose of 5 mg/kg", "result": "no significant changes"}, {"measurement": "changes in total fat content of the liver", "setting": "[3]; dose of 20 mg/kg", "result": "no significant changes"}, {"measurement": "signs of abnormal health", "setting": "[3]; oral, 5.0 and 20 mg/kg once a day for 2 weeks, male and female ICR mice", "result": "No signs of abnormal health"}, {"measurement": "TNF-α expression (ELISA)", "setting": "TNF-α", "result": "lower level"}]}
